This note sets out measurements from publication PMC7703542 (Proceedings of the National Academy of Sciences of the …, 2020).

For the assay, the target named is PdF1 γCC (PdF1) (Paracoccus denitrificans, UniProt A1B8N8+A1B8P0). The assay is described as follows: single-molecule rotation assay, Mg-ADP inhibited pauses. The format is biochemical. The note with it: 1 µM ADP with 1 µM ATP, no ADP-trapping system, 0.1% LDAO.
PdF1 γCC (PdF1), sequence (A1B8P0 whole entry): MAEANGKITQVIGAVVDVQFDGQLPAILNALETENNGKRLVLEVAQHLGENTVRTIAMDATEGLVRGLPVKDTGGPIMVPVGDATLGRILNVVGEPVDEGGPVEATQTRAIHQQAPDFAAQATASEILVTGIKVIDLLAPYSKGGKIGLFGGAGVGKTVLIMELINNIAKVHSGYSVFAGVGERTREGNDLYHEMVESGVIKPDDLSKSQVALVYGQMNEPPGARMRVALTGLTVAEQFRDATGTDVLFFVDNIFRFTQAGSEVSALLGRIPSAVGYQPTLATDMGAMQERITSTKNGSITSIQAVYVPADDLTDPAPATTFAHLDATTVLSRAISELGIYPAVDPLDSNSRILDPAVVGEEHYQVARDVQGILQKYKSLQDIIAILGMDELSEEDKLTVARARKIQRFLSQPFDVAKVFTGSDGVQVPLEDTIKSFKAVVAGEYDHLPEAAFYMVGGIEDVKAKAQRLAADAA
PdF1 γCC (PdF1), sequence (A1B8N8 whole entry): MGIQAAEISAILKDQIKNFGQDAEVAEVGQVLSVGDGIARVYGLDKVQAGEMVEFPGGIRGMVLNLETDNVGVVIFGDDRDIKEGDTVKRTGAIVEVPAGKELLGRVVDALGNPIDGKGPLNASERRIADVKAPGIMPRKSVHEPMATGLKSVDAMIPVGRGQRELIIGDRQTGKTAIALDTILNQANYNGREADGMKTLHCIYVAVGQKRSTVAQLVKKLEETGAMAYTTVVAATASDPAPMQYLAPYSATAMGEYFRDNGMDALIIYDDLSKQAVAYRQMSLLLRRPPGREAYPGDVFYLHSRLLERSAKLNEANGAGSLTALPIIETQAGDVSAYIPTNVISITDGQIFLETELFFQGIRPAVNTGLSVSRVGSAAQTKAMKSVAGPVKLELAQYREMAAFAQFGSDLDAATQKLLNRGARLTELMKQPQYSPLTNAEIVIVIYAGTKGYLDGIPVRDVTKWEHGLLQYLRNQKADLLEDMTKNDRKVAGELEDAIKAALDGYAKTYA
PdF1 γCC (PdF1), sequence (A1B8N9 whole entry Q115C/D214C partner): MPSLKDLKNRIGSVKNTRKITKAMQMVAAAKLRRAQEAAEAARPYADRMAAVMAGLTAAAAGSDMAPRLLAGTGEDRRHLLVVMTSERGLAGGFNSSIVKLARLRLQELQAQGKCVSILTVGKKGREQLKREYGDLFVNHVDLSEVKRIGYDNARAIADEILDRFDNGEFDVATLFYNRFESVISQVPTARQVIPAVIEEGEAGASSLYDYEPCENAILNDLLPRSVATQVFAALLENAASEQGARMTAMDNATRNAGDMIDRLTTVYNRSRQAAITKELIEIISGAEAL
PdF1 γCC (PdF1), sequence (A1B8N7 whole entry partner): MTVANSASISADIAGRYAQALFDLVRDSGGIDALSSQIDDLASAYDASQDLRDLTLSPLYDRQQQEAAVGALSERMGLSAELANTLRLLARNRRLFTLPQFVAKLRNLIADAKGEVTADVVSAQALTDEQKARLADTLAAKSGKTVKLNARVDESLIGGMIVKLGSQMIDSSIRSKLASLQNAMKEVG
PdF1 γCC (PdF1), sequence (A1B8P1 whole entry partner): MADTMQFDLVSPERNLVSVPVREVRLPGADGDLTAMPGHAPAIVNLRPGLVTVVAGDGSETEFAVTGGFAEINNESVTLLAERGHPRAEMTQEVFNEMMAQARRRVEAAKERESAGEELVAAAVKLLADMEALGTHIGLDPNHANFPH

Take `Nc1ncnc2c1ncn2[C@@H]1O[C@H](COP(=O)(O)OP(=O)(O)O)[C@@H](O)[C@H]1O` [ADP]: the “single-molecule rotation assay, Mg-ADP inhibited pauses” value is “supporting the conclusion that they are a result of Mg-ADP inhibition”.
